Measurements published in US9751869B2, “LXR modulators” (BRISTOL-MYERS SQUIBB COMPANY, priority 2013, dated 2017).
pEC50: −log10 of the molar value.

Target: T1, LXRβ (Homo sapiens, UniProt P55055)
T1 construct: Co-transfection expression plasmids, comprising full-length LXRα (pCMX-h LXRα or LXRβ (pCMX-hLXRβ)); expressed in transfected cells; host or cells: CV-1 African green monkey kidney cells, transient transfection with pCMX-hLXRβ
T1 sequence (P55055 1-460): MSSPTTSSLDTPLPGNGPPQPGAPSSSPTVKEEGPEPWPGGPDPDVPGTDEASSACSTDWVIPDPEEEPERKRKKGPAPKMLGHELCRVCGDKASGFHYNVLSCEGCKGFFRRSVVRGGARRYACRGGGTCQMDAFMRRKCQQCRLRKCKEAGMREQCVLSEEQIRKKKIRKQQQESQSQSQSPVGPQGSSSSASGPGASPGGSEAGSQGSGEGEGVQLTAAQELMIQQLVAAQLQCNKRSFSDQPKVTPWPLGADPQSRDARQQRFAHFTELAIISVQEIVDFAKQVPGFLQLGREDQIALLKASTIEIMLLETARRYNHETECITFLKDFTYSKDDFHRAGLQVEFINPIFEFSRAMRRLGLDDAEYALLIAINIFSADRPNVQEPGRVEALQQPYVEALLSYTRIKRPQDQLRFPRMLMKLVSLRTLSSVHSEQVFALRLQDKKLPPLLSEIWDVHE
T1 sequence (P19793 1-462 partner): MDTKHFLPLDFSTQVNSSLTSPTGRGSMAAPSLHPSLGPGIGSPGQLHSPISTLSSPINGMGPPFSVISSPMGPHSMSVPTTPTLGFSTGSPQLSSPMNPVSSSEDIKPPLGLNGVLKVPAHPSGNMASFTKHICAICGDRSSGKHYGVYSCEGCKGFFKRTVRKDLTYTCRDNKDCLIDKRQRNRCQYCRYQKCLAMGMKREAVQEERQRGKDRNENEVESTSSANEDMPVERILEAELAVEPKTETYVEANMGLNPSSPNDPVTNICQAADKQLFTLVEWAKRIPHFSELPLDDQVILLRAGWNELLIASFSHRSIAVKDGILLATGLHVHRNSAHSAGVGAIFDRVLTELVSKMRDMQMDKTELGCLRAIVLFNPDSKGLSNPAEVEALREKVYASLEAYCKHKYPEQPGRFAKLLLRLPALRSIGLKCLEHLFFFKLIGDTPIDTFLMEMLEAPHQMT
Experiment: LXR/LXRE co-transfection assay (luciferase reporter) in CV-1 cells, LXRβ
Assay type: cell-based
Settings: for pEC50: CV-1 cells transfected with pCMX-hLXRβ and LXREx1-Tk-Luciferase, 20 hours incubation, read-out: LXRbeta agonism EC50; for Emax: read-out: LXRbeta % EFFICACY
How it was run: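 Luciferase read-out after 20 h compound treatment at 37 °C of CV-1 cells carrying transfected hLXRβ plus one-copy LXRE reporter, endogenous RXR partnering. Sigmoidal fit of 10-point half-log curves (4 wells each) gave EC50; % efficacy versus maximal response of the propionamide reference agonist.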

[1] = CV-1 cells, relative to maximum response of high control N-(3-((4-fluorophenyl)-(naphthalene-2-sulfonyl)amino)propyl)-2,2-dimethylpropionamide

Compound	pEC50	Emax [1] [%]	LXRbeta % EFFICACY [1] [%]
Cc1nc(-c2cc(-c3cc(F)c(CO)c(S(C)(=O)=O)c3)ccc2-n2ccc(C(F)(F)F)n2)c(-c2ccc(Cl)cc2)o1 [Example 400, (3′-(5-(4-chlorophenyl)-2-methyloxazol-4-yl)-3-fluoro-5-(methylsulfonyl)-4′-(3-(trifluoromethyl)-1H-pyrazol-1-yl)biphenyl-4-yl)methanol]	7.42	53	–
Cc1nc(-c2ccc(OC(F)(F)F)cc2)c(-c2cc(-c3cccc(C(C)(C)C#N)c3)ccc2-n2ccc(C(F)(F)F)n2)o1 [Example 342, 2-methyl-2-(3′-(2-methyl-4-(4-(trifluoromethoxy)phenyl)oxazol-5-yl)-4′-(3-(trifluoromethyl)-1H-pyrazol-1-yl)biphenyl-3-yl) propanenitrile]	6.36	46	–
Cc1nc(-c2ccc(OC(F)(F)F)cc2)c(-c2cc(-c3cccc(S(C)(=O)=O)c3)ccc2-n2ccc(C(C)O)n2)o1 (single isomer, unassigned) [Example 368, 1-(1-(3-(2-methyl-4-(4-(trifluoromethoxy)phenyl)oxazol-5-yl)-3′-(methylsulfonyl)-[1,1′-biphenyl]-4-yl)-1H-pyrazol-3-yl)ethanol]	6.05	–	50
Cc1nc(-c2cc(-c3cccc(S(C)(=O)=O)c3)ccc2-n2nc(C(F)(F)F)cc2C2CC2)c(-c2ccc(OC(F)(F)F)cc2)o1 [Example 312, 4-(4-(5-cyclopropyl-3-(trifluoromethyl)-1H-pyrazol-1-yl)-3′-(methylsulfonyl)biphenyl-3-yl)-2-methyl-5-(4-(trifluoromethoxy)phenyl)oxazole]	6.10	34	–

Continued, values first:

pEC50	Emax [1] [%]	LXRbeta % EFFICACY [1] [%]	Compound
6.12	24	–	Cc1nc(-c2ccc3c(c2)OC(F)(F)O3)c(-c2cc(-c3cc(F)c(CO)c(S(C)(=O)=O)c3)ccc2-c2cc(C(=O)NC(C)(C)C#N)nn2C)o1 [Example 55, N-(2-cyanopropan-2-yl)-5-(3-(4-(2,2-difluorobenzo[d][1,3]dioxol-5-yl)-2-methyloxazol-5-yl)-3′-fluoro-4′-(hydroxymethyl)-5′-(methylsulfonyl)biphenyl-4-yl)-1-methyl-1H-pyrazole-3-carboxamide]
7.52	86	–	Cc1nc(-c2ccc(OC(F)F)c(F)c2)c(-c2cc(-c3cc(F)c(CO)c(S(C)(=O)=O)c3)ccc2-c2cc(C(F)(F)CO)nn2C)o1 [Example 77, 2-(5-(3-(4-(4-(difluoromethoxy)-3-fluorophenyl)-2-methyloxazol-5-yl)-3′-fluoro-4′-(hydroxymethyl)-5′-(methylsulfonyl)biphenyl-4-yl)-1-methyl-1H-pyrazol-3-yl)-2,2-difluoroethanol]
5.95	58	–	Cc1nc(-c2ccc(OC(F)(F)F)cc2)c(-c2cc(-c3cc(F)c(CO)c(S(C)(=O)=O)c3)ccc2-n2ccc(CO)n2)o1 [Example 322, (3-fluoro-4′-(3-(hydroxymethyl)-1H-pyrazol-1-yl)-3′-(2-methyl-4-(4-(trifluoromethoxy)phenyl)oxazol-5-yl)-5-(methylsulfonyl)biphenyl-4-yl)methanol]
6.75	47	–	Cc1nc(-c2ccc3c(c2)OC(F)(F)O3)c(-c2cc(-c3cc(F)c(CO)c(S(C)(=O)=O)c3)ccc2-c2cc(C(C)OC(N)=O)nn2C)o1 (stereo not drawn) [Example 131, 1-(5-(3-(4-(2,2-difluorobenzo[d][1,3]dioxol-5-yl)-2-methyloxazol-5-yl)-3′-fluoro-4′-(hydroxymethyl)-5′-(methylsulfonyl)-[1,1′-biphenyl]-4-yl)-1-methyl-1H-pyrazol-3-yl)ethyl carbamate]
6.55	26	–	Cc1nc(-c2ccc3c(c2)OC(F)(F)O3)c(-c2cc(-c3cc(F)c(CO)c(S(C)(=O)=O)c3)ccc2-c2cc(CO)nn2C)o1 [Example 99, (5-(3-(4-(2,2-difluorobenzo[d][1,3]dioxol-5-yl)-2-methyloxazol-5-yl)-3′-fluoro-4′-(hydroxymethyl)-5′-(methylsulfonyl)-[1,1′-biphenyl]-4-yl)-1-methyl-1H-pyrazol-3-yl)methanol]
